Experimental data taken from PubChem BioAssay AID330 (DTP/NCI, 2004).
Values joined by “and” are separate entries in the source; they are usually repeats but may differ in a detail not shown here. Equal values may be shown once. Toxic doses and inconclusive results are not listed. How the source made its calls: active means survival T/C of 150% or more; inactive means T/C below 125% in these data.

System: P388 leukemia ip, CD2F1 mice, survival T/C
Assay: NCI In Vivo Anticancer Drug Screen. Data for tumor model P388 Leukemia (intraperitoneal) in CD2F1 (CDF1) mice
Conditions: endpoint: median survival time, higher = longer survival
Summary of the method: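 Mice carrying the transplanted tumor received test compound or vehicle. Survival was recorded in each group, and the value is the treated-group measurement divided by that of the vehicle-treated control group.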

[1] = dose: 7.5 mg/kg/injection, schedule: Q01DX005 (ip), vehicle: saline
[2] = dose: 15.0 mg/kg/injection, schedule: Q01DX005 (ip), vehicle: saline
[3] = dose: 50.0 mg/kg/injection, schedule: Q01DX005 (ip), vehicle: Klucel (hydroxypropylcellulose) (HPC)
[4] = dose: 100.0 mg/kg/injection, schedule: Q01DX005 (ip), vehicle: Klucel (hydroxypropylcellulose) (HPC)
[5] = dose: 200.0 mg/kg/injection, schedule: Q01DX005 (ip), vehicle: Klucel (hydroxypropylcellulose) (HPC)
[6] = dose: 50.0 mg/kg/injection, schedule: Q01DX009 (ip), vehicle: saline with Tween-80
[7] = dose: 100.0 mg/kg/injection, schedule: Q01DX009 (ip), vehicle: saline with Tween-80
[8] = dose: 200.0 mg/kg/injection, schedule: Q01DX009 (ip), vehicle: saline with Tween-80
[9] = dose: 50.0 mg/kg/injection, schedule: Q01DX009 (ip), vehicle: saline
[10] = dose: 100.0 mg/kg/injection, schedule: Q01DX009 (ip), vehicle: saline
[11] = dose: 60.0 mg/kg/injection, schedule: Q01DX005 (ip), vehicle: saline with Tween-80
[12] = dose: 120.0 mg/kg/injection, schedule: Q01DX005 (ip), vehicle: saline with Tween-80
[13] = dose: 240.0 mg/kg/injection, schedule: Q01DX005 (ip), vehicle: saline with Tween-80
[14] = dose: 50.0 mg/kg/injection, schedule: Q01DX005 (ip), vehicle: saline with Tween-80
[15] = dose: 100.0 mg/kg/injection, schedule: Q01DX005 (ip), vehicle: saline with Tween-80
[16] = dose: 200.0 mg/kg/injection, schedule: Q01DX005 (ip), vehicle: saline with Tween-80

Measured: T/C

CNC(=O)OCc1c(COC(=O)NC)c(-c2ccco2)n2c1CCC2
inactive: dose: 3.75 mg/kg/injection, schedule: Q01DX005 (ip), vehicle: saline 100 % of control | [1] 101 % of control | [2] 120 % of control

CCn1cnc(=O)[nH]c1=O
inactive: [3] 102 % of control | [4] 96 % of control | [5] 97 % of control

C1CCCN(N2CCOCC2)CC1
inactive: dose: 100.0 mg/kg/injection, schedule: Q01DX001 (ip), vehicle: saline 104 % of control | dose: 200.0 mg/kg/injection, schedule: Q01DX001 (ip), vehicle: saline 98 % of control | dose: 400.0 mg/kg/injection, schedule: Q01DX001 (ip), vehicle: saline 101 % of control

C[N+](C)(C)[C@H]1CCCC[C@@H]1O
inactive: dose: 50.0 mg/kg/injection, schedule: Q01DX005 (ip), vehicle: distilled water + alcohol 104 % of control | dose: 100.0 mg/kg/injection, schedule: Q01DX005 (ip), vehicle: distilled water + alcohol 99 % of control | dose: 200.0 mg/kg/injection, schedule: Q01DX005 (ip), vehicle: distilled water + alcohol 105 % of control

O=[n+]1c2c(n([O-])c3ccccc31)CCC2
inactive: [6] 98 % of control | [7] 100 % of control | [8] 108 % of control

O=C1C=CC(=O)N1c1ccc(O)cc1
inactive: dose: 1.25 mg/kg/injection, schedule: Q01DX009 (ip), vehicle: saline sonified 95 % of control | dose: 2.5 mg/kg/injection, schedule: Q01DX009 (ip), vehicle: saline sonified 95 % of control

C[N+](C)(C)CC[N+](C)(C)Cc1cccc2ccccc12
inactive: [9] 106 % of control | [10] 107 % of control

Cc1cc(=O)[nH]c2cc3oc4ccccc4c3cc12
inactive: [11] 98 % of control | [12] 102 % of control | [13] 103 % of control

C[n+]1c(-c2ccc(/C=N/NC(=O)C(=O)N/N=C/c3ccc(-c4cn5ccccc5[n+]4C)cc3)cc2)cn2ccccc21
inactive: [1] 109 % of control | [2] 119 % of control

CCCC/C=C(\C)C(O)C(C)/C=C(\C)CCC(O)C(C)C(O)C(C)C(O)C(C)C1OC(C(C)C(=O)O)CCC1C (stereo not drawn)
inactive: dose: 1.5 mg/kg/injection, schedule: Q01DX005 (ip), vehicle: Klucel (hydroxypropylcellulose) (HPC) 103 % of control and 105 % of control | dose: 3.0 mg/kg/injection, schedule: Q01DX005 (ip), vehicle: Klucel (hydroxypropylcellulose) (HPC) 99 % of control and 108 % of control | dose: 6.0 mg/kg/injection, schedule: Q01DX005 (ip), vehicle: Klucel (hydroxypropylcellulose) (HPC) 102 % of control and 109 % of control | dose: 12.0 mg/kg/injection, schedule: Q01DX005 (ip), vehicle: Klucel (hydroxypropylcellulose) (HPC) 99 % of control and 100 % of control

NC(=S)c1cccc(-c2ccccn2)n1
inactive: dose: 100.0 mg/kg/injection, schedule: Q04DX003 (ip), vehicle: Klucel (hydroxypropylcellulose) (HPC) 102 % of control | dose: 200.0 mg/kg/injection, schedule: Q04DX003 (ip), vehicle: Klucel (hydroxypropylcellulose) (HPC) 103 % of control

COc1cc2c(cc1OC)C1C(O)C(OC)C=C3CCN(C2)C31 (stereo not drawn)
inactive: dose: 25.0 mg/kg/injection, schedule: Q01DX009 (ip), vehicle: saline with Tween-80 114 % of control | [6] 114 % of control | [9] 93 % of control | [7] 118 % of control | [10] 119 % of control | dose: 200.0 mg/kg/injection, schedule: Q01DX009 (ip), vehicle: saline 102 % of control

c1ccc2c(c1)oc1c3c(ccc12)NCCC3
inactive: [14] 104 % of control | [15] 99 % of control | [16] 104 % of control

O=C(O)CCNC(Cc1ccc(O)cc1)C(=O)O (stereo not drawn)
inactive: [3] 96 % of control | [4] 102 % of control | [5] 103 % of control

C1CCOCCOCCOCCOCCOCCCCCC2(CC1)OCCO2
inactive: [14] 96 % of control | [15] 94 % of control | [16] 96 % of control

CCCCOP(O)(=S)OCCCC.[Ti]
inactive: dose: 100.0 mg/kg/injection, schedule: Q01DX009 (ip), vehicle: Klucel (hydroxypropylcellulose) (HPC) 96 % of control | dose: 200.0 mg/kg/injection, schedule: Q01DX009 (ip), vehicle: Klucel (hydroxypropylcellulose) (HPC) 96 % of control | dose: 400.0 mg/kg/injection, schedule: Q01DX009 (ip), vehicle: Klucel (hydroxypropylcellulose) (HPC) 95 % of control

Cc1ccc(NC(=S)N/N=C\c2nc3ccccc3c3ccccc23)cc1
inactive: dose: 100.0 mg/kg/injection, schedule: Q04DX002 (ip), vehicle: Klucel (hydroxypropylcellulose) (HPC) 98 % of control | dose: 200.0 mg/kg/injection, schedule: Q04DX002 (ip), vehicle: Klucel (hydroxypropylcellulose) (HPC) 92 % of control | dose: 400.0 mg/kg/injection, schedule: Q04DX002 (ip), vehicle: Klucel (hydroxypropylcellulose) (HPC) 93 % of control

O=C(Nc1ccc(NC(=O)c2ccncc2)cc1)c1ccncc1
inactive: [14] 97 % of control | [15] 93 % of control | [16] 97 % of control

CCCCc1c(O)c(N=NC(=O)C[N+](C)(C)C)c2ccccc2c1O
inactive: [14] 104 % of control | [15] 110 % of control | [16] 108 % of control

CC(N)CC(N)CC(=O)O (stereo not drawn)
inactive: dose: 60.0 mg/kg/injection, schedule: Q01DX005 (ip), vehicle: saline 100 % of control and 99 % of control | dose: 120.0 mg/kg/injection, schedule: Q01DX005 (ip), vehicle: saline 102 % of control and 100 % of control | dose: 240.0 mg/kg/injection, schedule: Q01DX005 (ip), vehicle: saline 90 % of control and 91 % of control

O=C(CNC(=O)c1ccccc1)N/N=C\c1c[nH]c2ccccc12
inactive: [11] 101 % of control | [12] 100 % of control | [13] 96 % of control

CC(C)(C)c1cc(C(C)(C)O)c2c(c1)C(C)(C)OS2
inactive: dose: 50.0 mg/kg/injection, schedule: Q04DX003 (ip), vehicle: saline with Tween-80 99 % of control | dose: 100.0 mg/kg/injection, schedule: Q04DX003 (ip), vehicle: saline with Tween-80 106 % of control | dose: 200.0 mg/kg/injection, schedule: Q04DX003 (ip), vehicle: saline with Tween-80 100 % of control

COC(=O)/C=C1\C(=O)OC2(C)CCCCC12 (stereo not drawn)
inactive: [6] 95 % of control | [7] 97 % of control | [8] 100 % of control

O=C1C(O)=C(Cl)C(=O)C(O)=C1Cl
inactive: dose: 12.5 mg/kg/injection, schedule: Q01DX005 (ip), vehicle: saline 111 % of control | dose: 25.0 mg/kg/injection, schedule: Q01DX005 (ip), vehicle: saline 101 % of control | dose: 50.0 mg/kg/injection, schedule: Q01DX005 (ip), vehicle: saline 110 % of control | dose: 100.0 mg/kg/injection, schedule: Q01DX005 (ip), vehicle: saline 90 % of control
